These are literature values, as cited in patent publication US20220118118A1, “BENZAZEPIN-L,7-DIOL-DERIVED RADIOLABELED LIGANDS WITH HIGH IN VIVO NMDA SPECIFICITY” (ETH ZURICH, priority 2018, published 2022).

The conditions of the data set: Garrigou-Cadenne et al. 1995.

As for `OC(CN1CCC(Cc2ccc(F)cc2)CC1)c1ccc(Cl)cc1` (stereo not shown) [eliprodil], the brain/plasma ratio entry is “about 20”.
